In US7569530B1, “Antimicrobial compositions, products and methods employing same” (The Procter & Gamble Company, priority 2003, dated 2009):

Assays:
COX-1 = COX-1 (Homo sapiens, UniProt P23219); assay: In vitro cycloxygenase enzyme inhibition; assay type: biochemical; conditions: treatment sample at pH 3.0
Excerpt: (§1) In vitro studies of the present invention and its key components have been conducted to assess the efficacy of the claimed compositions in inhibiting the cycloxygenase (COX) 1 and 2 enzymes. Said enzymes are adapted to convert arachidonic acid in cell membranes to prostaglandin, a messenger agent that conveys a signal to the cells to increase and enhance their inflammatory response. […] The results of this in vitro study have been documented in the below-listed chart.

COX-2 = biological target: T1, COX-2 (Homo sapiens, UniProt P35354); assay: In vitro cycloxygenase enzyme inhibition; assay type: biochemical; conditions: treatment sample at pH 3.0
T1 sequence (P35354 18-604): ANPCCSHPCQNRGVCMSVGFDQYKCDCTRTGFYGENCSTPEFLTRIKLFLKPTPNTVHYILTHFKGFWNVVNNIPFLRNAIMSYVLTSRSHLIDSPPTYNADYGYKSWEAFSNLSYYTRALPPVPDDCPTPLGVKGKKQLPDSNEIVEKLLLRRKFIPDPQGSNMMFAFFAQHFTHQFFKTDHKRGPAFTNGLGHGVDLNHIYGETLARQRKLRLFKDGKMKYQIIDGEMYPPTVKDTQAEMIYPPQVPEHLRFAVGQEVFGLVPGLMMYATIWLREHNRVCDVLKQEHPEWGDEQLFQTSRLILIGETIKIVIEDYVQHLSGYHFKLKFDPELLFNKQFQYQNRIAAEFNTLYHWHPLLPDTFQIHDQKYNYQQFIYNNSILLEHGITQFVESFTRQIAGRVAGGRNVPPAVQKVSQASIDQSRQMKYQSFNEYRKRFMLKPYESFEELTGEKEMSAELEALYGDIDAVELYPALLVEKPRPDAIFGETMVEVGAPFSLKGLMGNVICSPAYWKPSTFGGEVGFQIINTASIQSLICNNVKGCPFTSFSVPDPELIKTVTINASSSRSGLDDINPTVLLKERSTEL
Excerpt: as §1

Sequence of COX-1 (P23219 24-599): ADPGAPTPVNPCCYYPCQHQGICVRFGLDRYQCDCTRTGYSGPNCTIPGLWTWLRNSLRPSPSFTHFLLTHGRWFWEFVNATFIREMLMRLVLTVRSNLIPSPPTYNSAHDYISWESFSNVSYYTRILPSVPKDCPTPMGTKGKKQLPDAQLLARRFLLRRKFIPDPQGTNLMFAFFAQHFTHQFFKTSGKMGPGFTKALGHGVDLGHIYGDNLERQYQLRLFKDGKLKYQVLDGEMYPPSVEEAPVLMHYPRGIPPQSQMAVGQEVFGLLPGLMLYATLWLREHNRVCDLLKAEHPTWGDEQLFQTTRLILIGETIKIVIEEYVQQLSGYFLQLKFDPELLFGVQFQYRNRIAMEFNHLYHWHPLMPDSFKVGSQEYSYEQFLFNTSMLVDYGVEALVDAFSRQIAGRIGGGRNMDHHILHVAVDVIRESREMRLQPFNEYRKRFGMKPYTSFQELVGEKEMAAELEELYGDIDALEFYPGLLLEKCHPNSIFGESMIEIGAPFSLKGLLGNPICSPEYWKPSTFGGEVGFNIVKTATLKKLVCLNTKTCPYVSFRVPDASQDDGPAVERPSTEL

| % of Initial Enzyme Activity COX-1 (COX-1) [%] | % of Initial Enzyme Activity COX-2 (COX-2) [%] | Molecule |
| --- | --- | --- |
| 100 | 92 | O=C1CC[C@@H](C(=O)O)N1 [B, Pyroglutamic Acid] |
| 94 | 100 | O=C(O)CC(O)(CC(=O)O)C(=O)O [C, Citric Acid] |
| 55 | 95 | Octyl Glyceryl Sulfonate |
